This assay has as its target maltoporin (Escherichia coli, UniProt P02943). The experiment in a line: single-channel current blockage in planar lipid bilayer. In kind it is binding. As to conditions: 1.0 M NaCl, pH 7, 150 mV, 23 °C.

Sequence of maltoporin (P02943 26-446): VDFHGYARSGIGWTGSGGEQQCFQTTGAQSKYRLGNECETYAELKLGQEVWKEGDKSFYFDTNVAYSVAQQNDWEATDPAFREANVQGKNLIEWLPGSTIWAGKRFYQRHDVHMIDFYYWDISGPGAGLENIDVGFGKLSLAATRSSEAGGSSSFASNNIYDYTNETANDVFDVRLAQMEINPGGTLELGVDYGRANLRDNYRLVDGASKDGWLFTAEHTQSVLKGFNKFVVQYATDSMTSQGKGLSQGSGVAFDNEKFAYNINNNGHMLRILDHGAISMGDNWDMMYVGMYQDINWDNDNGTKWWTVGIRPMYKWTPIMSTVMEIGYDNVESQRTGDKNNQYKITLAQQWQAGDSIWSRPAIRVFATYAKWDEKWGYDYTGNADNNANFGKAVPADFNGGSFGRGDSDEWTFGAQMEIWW

Consider `OC[C@H]1O[C@@H]2O[C@H]3[C@H](O)[C@@H](O)[C@@H](O[C@H]4[C@H](O)[C@@H](O)[C@@H](O[C@H]5[C@H](O)[C@@H](O)[C@@H](O[C@H]6[C@H](O)[C@@H](O)[C@@H](O[C@H]7[C@H](O)[C@@H](O)[C@@H](O[C@H]8[C@H](O)[C@@H](O)[C@@H](O[C@H]1[C@H](O)[C@H]2O)O[C@@H]8CO)O[C@@H]7CO)O[C@@H]6CO)O[C@@H]5CO)O[C@@H]4CO)O[C@@H]3CO` [CD, β-cyclodextrin], for which the “average lifetime of the channel complex” value (cis-side addition) was 7.3 ± 0.5 ms. Take `OC[C@H]1O[C@H](O[C@H]2[C@H](O)[C@@H](O)[C@@H](O[C@H]3[C@H](O)[C@@H](O)[C@@H](O[C@H]4[C@H](O)[C@@H](O)[C@@H](O[C@H]5[C@H](O)[C@@H](O)[C@@H](O[C@H]6[C@H](O)[C@@H](O)[C@@H](O[C@H]7[C@H](O)[C@@H](O)C(O)O[C@@H]7CO)O[C@@H]6CO)O[C@@H]5CO)O[C@@H]4CO)O[C@@H]3CO)O[C@@H]2CO)[C@H](O)[C@@H](O)[C@@H]1O` (some centres unmarked) [m7, maltoheptaose]: the “average lifetime of the channel complex” value came to 2.0 ± 0.3 ms.

The values are drawn from publication PMC3128435 (Journal of physics. Condensed matter : an Institute of …, 2010).
